# Values quoted from earlier work in US11324822B2, “Combination of HDAC inhibitor and anti-PD-1 antibody for treatment of cancer” (priority 2015, dated 2022).
# Experiments:
# [1] = in vivo
# histone acetylation = details: following the administration of entinostat
smiles,measurement,setting,value
"Nc1ccccc1NC(=O)c1ccc(CNC(=O)OCc2cccnc2)cc1 [Entinostat, N-(2-aminophenyl)-4-[N-(pyridine-3-yl)methoxycarbonylamino-methyl]-benzamide]",half-life,[1],about 100 hours
same,changes in histone acetylation following administration,histone acetylation,persist for several weeks
